Ends that are not written are not given here.
Legend:
[1] = Log P of the amino acid as quoted in the discussion; source and method not given; cited from earlier work
From the text: The predicted information from HeliQuest referred to the design of analogues (Figure 2). The first modification step was designed to increase hydrophobic characteristics and decrease helicity. […] The ...

S. aureus ATCC CRM 6538 = format: cell-based, Staphylococcus aureus
From the text: (§1) The anti-planktonic microorganism efficacy of the peptides was investigated via minimal bacterial inhibitory concentration (MIC) and minimal bactericidal concentration (MBC) assays. Eight types of microorganisms, including Gram-positive bacteria, Staphylococcus aureus (ATCC CRM 6538), Methicillin-resistant Staphylococcus aureus (NCTC 12493), and Enterococcus faecium (NCTC 12697), Gram-negative bacteria, Escherichia coli (ATCC CRM 8739, ATCC BAA 2340, ATCC 13846, ATCC BAA 2469, and ATCC BAA 2471), Klebsiella pneumoniae (ATCC 43816), Pseudomonas aeruginosa (ATCC CRM 9027) and Acinetobacter baumannii (ATCC BAA 747) and a yeast, Candida albicans (ATCC CRM 10231) were utilized to test the antimicrobial activity of peptides.
(§2) For the MIC assay, microorganisms were inoculated with peptides in a 96-well plate. Nutrient broth (NB) was applied for MRSA, E. coli, K. pneumoniae, and P. aeruginosa, tryptic soy broth (TSB) was applied for S. aureus, E. faecium, and A. baumannii, and yeast extract peptone dextrose broth (YPD-B) was used for C. albicans. The microorganisms were cultured (bacteria: 37 °C; yeast: 26 °C) overnight at 120 rpm and subcultured to achieve the logarithmic growth stage (5 × 10^5 CFU/mL), as confirmed by viable cell counts. After that, 99 µL of the subculture and 1 µL of the peptide were added to the 96-well plate. The final concentration of peptides ranged from 128 to 1 µmol/L (µM) using a 2-fold dilution. In addition, four other groups were established simultaneously at the commencement of the test: a growth control group, a vehicle control group (Dimethyl Sulphoxide, DMSO), a positive control group utilizing Norfloxacin at a concentration of 2 mg/mL for bacteria, and Amphotericin B. at a concentration of 1 mg/mL for yeast, and a blank control group (sterile NB/TSB/YPD-B). The MIC values were measured after overnight incubation at 37/26 °C. The optical density (OD) values were analysed at 550 nm using a Synergy HT plate reader (BioTek, Washington, USA), and were calculated using the following equation:(1) Cell Viability %=[(As−A0)/(Ag−A0)]×100% where As is the absorbance value of the sample group, A0 is the average of the absorbance values of the blank control, and Ag is the average of the absorbance values of the growth control. For the MBC assay, 10 µL of the inhibited cultures on the 96-well plate were transferred onto a corresponding medium agar plate and incubated overnight at 37/26 °C to measure MBC values. The results were obtained from three independent assays.

MRSA NCTC 12493 = format: cell-based, Methicillin-resistant Staphylococcus aureus
From the text: as §1, §2

E. faecalis NCTC 12697 = format: cell-based
E. coli ATCC BAA 2340 = format: cell-based, Escherichia coli; settings: KPC strain, overnight 37 °C, three independent assays; for MIC: NB, 5 × 10^5 CFU/mL, OD 550 nm; for MBC: agar plate
From the text: as §1, §2

E. coli ATCC BAA 2469 = format: cell-based, Escherichia coli; settings: NDM-1 strain, overnight 37 °C, three independent assays; for MIC: NB, 5 × 10^5 CFU/mL, OD 550 nm; for MBC: agar plate
From the text: as §1, §2

E. coli ATCC BAA 2471 = format: cell-based, Escherichia coli; settings: NDM-1 strain, overnight 37 °C, three independent assays; for MIC: NB, 5 × 10^5 CFU/mL, OD 550 nm; for MBC: agar plate
From the text: as §1, §2

E. coli ATCC CRM 8739 = format: cell-based, Escherichia coli
From the text: as §1, §2

E. coli NCTC 13846 = format: cell-based, Escherichia coli
From the text: as §1, §2

K. pneumoniae ATCC 43816 = format: cell-based, Klebsiella pneumoniae
From the text: as §1, §2

[2] = system: P. aeruginosa ATCC CRM 9027; format: cell-based, Pseudomonas aeruginosa
From the text: as §1, §2

[3] = system: A. baumannii ATCC BAA 747; format: cell-based, Acinetobacter baumannii
From the text: as §1, §2

[4] = system: C. albicans ATCC CRM 10231; format: cell-based, Candida albicans; settings: for MBC / MIC: ATCC CRM 10231
From the text: as §1, §2

horse erythrocytes = test: Haemolysis activity; format: cell-based; settings: concentration causing 50% haemolysis; 4% (v/v) horse red blood cells in PBS, peptide 128 to 1 µM, 37 °C 2 h, OD 570 nm, 1% Triton X-100 positive control, three separate assays
Procedure: To start, fresh defibrinated horse blood (TCS Biosciences Ltd., Buckingham, UK) was washed with PBS solution to obtain a clear supernatant. Then, a 4% (v/v) suspension of red blood cells was made in PBS. After this, 100 µL of the peptide solutions were incubated with 100 µL of the suspension of red blood cells in 2 mL centrifuge tubes at 37 °C for 2 h. The ultimate concentration of peptides ranged from 128 to 1 µM obtained by a 2-fold dilution. Also, two other groups were set simultaneously, including a positive control group of 1% Triton X-100 and a blank control group of phosphate-buffered saline (PBS). After incubation and centrifugation at 900× g for 10 min, a volume of 100 µL of the resulting supernatant from each specimen was carefully transferred to individual wells of the 96-well plate. Subsequently, the OD values were analysed using a Synergy HT plate reader (BioTek, USA) at a wavelength of 570 nm using the following equation:(2) Haemolysis Activity %=[(As−A0)/(Ap−A0)]×100% where As is the absorbance value of the supernatant of the peptide group, A0 is the average absorbance value of the blank control, and Ap is the average absorbance value of the positive control. The data were obtained from three separate assays.

Gram-positive bacteria = test: Geometric mean of MICs and therapeutic index, Gram +; format: cell-based; settings: geometric mean of MICs of Table 3; 256.00 μM used where no activity at 128.00 μM
From the text: as §1
(§3) For the MIC assay, microorganisms were inoculated with peptides in a 96-well plate. […] The MIC values were measured after overnight incubation at 37/26 °C. The optical density (OD) values were analysed at 550 nm using a Synergy HT plate reader (BioTek, Washington, USA), and were calculated using the following equation:(1) Cell Viability %=[(As−A0)/(Ag−A0)]×100% where As is the absorbance value of the sample group, A0 is the average of the absorbance values of the blank control, and Ag is the average of the absorbance values of the growth control. […]

Gram-negative bacteria = test: Geometric mean of MICs and therapeutic index, Gram −; format: cell-based; settings: geometric mean of MICs of Table 3; 256.00 μM used where no activity at 128.00 μM
From the text: as §1, §3

Compound	Log P [1]	MBC (S. aureus ATCC CRM 6538)	MIC (S. aureus ATCC CRM 6538)	MBC (MRSA NCTC 12493)	MIC (MRSA NCTC 12493)	MBC (E. faecalis NCTC 12697)	MIC (E. faecalis NCTC 12697)	MBC (E. coli ATCC CRM 8739)	MIC (E. coli ATCC CRM 8739)	MBC (K. pneumoniae ATCC 43816)	MIC (K. pneumoniae ATCC 43816)	MBC [2]	MIC [2]	MBC [3]	MIC [3]	MBC [4]	MIC [4]	HC50 (horse erythrocytes)	other results
C[C@H](N)C(=O)O [Alanine]	3.54	–	–	–	–	–	–	–	–	–	–	–	–	–	–	–	–	–	–
NC(=O)CC[C@H](N)C(=O)O [Glutamine]	3.19	–	–	–	–	–	–	–	–	–	–	–	–	–	–	–	–	–	–
NCC(=O)O [Glycine]	3.20	–	–	–	–	–	–	–	–	–	–	–	–	–	–	–	–	–	–
CC(C)[C@H](N)C(=O)O [Valine]	4.42	–	–	–	–	–	–	–	–	–	–	–	–	–	–	–	–	–	–
N[C@@H](CO)C(=O)O [serine]	2.66	–	–	–	–	–	–	–	–	–	–	–	–	–	–	–	–	–	–
ALWKKILKNAGKAVLNEINQIVQ-NH2 [Peptide 14V5K]	–	4 µM	4 µM	4 µM	4 µM	>128 µM	>128 µM	2 µM	2 µM	2 µM	2 µM	8 µM	8 µM	8 µM	8 µM	8 µM	8 µM	256.00	MIC (E. coli ATCC BAA 2340): 2 µM; MBC (E. coli ATCC BAA 2340): 2 µM; MIC (E. coli ATCC BAA 2469): 1 µM; MBC (E. coli ATCC BAA 2469): 2 µM; MIC (E. coli ATCC BAA 2471): 1 µM; MBC (E. coli ATCC BAA 2471): 2 µM; MBC (E. coli NCTC 13846): 4 µM; MIC (E. coli NCTC 13846): 4 µM; time to eradicate bacteria: < 10 min
ALWKSILKNAGKAALNEINQIVQ-NH2 [SS1]	–	8 µM	8 µM	>128 µM	>128 µM	>128 µM	>128 µM	4 µM	2 µM	16 µM	16 µM	32 µM	32 µM	16 µM	16 µM	>128 µM	>128 µM	256.00 µM	MIC (E. coli ATCC BAA 2340): 4 µM; MBC (E. coli ATCC BAA 2340): 4 µM; MIC (E. coli ATCC BAA 2469): 4 µM; MBC (E. coli ATCC BAA 2469): 4 µM; MIC (E. coli ATCC BAA 2471): 8 µM; MBC (E. coli ATCC BAA 2471): 8 µM; MBC (E. coli NCTC 13846): 8 µM; MIC (E. coli NCTC 13846): 8 µM
ALWKSILKNAGKAGLNEINQIVQ-NH2 [Peptide 14G]	–	>128 µM	>128 µM	>128 µM	>128 µM	>128 µM	>128 µM	16 µM	16 µM	>128 µM	>128 µM	> 128 µM	32 µM	>128 µM	>128 µM	>128 µM	>128 µM	256.00	–
ALWKSILKNAGKALNEINQIVQ-NH2 [Peptide L14]	–	>128 µM	>128 µM	32 µM	32 µM	>128 µM	>128 µM	4 µM	4 µM	16 µM	16 µM	> 128 µM	16 µM	> 128 µM	32 µM	>128 µM	>128 µM	256.00	–
ALWKSILKNAGKAVLNEINQIV-NH2 [Peptide 14VL23]	–	>128 µM	>128 µM	>128 µM	>128 µM	>128 µM	>128 µM	16 µM	8 µM	4 µM	4 µM	>128 µM	>128 µM	>128 µM	>128 µM	>128 µM	>128 µM	256.00	–
ALWKSILKNAGKAVLNEINQIVQ-NH2 [Peptide 14V]	–	4 µM	4 µM	8 µM	8 µM	>128 µM	>128 µM	2 µM	2 µM	8 µM	8 µM	> 128 µM	16 µM	4 µM	4 µM	>128 µM	>128 µM	256.00	–
ALWKSILKNVGKVLNEINQIVQ-NH2 [Peptide L2V]	–	>128 µM	>128 µM	4 µM	4 µM	>128 µM	>128 µM	>128 µM	>128 µM	> 128 µM	8 µM	>128 µM	>128 µM	4 µM	4 µM	>128 µM	>128 µM	256.00	GM Yeast ([4]; geometric mean of MICs of Table 3, 256.00 μM used where no activity at 128.00 μM): 256.00 µM; GM Gram + (Gram-positive bacteria): 64.00 µM; GM Gram − (Gram-negative bacteria): 38.05 µM

— paper PMC10535717, “A Novel Antimicrobial Peptide, Dermaseptin-SS1, with Anti-Proliferative Activity, Isolated from the Skin Secretion of Phyllomedusa tarsius” (Molecules, 2023)
